Reference: patent US7268152B2, “Glucocorticoid mimetics, methods of making them, pharmaceutical compositions, and uses thereof” (Boehringer Ingelheim Pharmaceuticals, Inc., priority 2002, dated 2007)

Q: Which melting point does the source give for `COc1ccc(F)cc1C(C)(C)CC(O)(Cc1cc(C)cc(C)c1C#N)C(F)(F)F` (stereo not shown) [Example 32, 2-[4-(5-fluoro-2-methoxyphenyl)-2-hydroxy-4-methyl-2-trifluoromethylpentyl]-4,6-dimethylbenzonitrile] here?
A: Its melting point is 134 to 136 °C.
